According to PubChem BioAssay AID256 (DTP/NCI, 2004):
“And” between values parts separate entries of the source, which are not always exact repeats. Identical values can stand only once. Inconclusive results and toxic doses are left out. How the source made its calls: active means survival T/C of 150% or more; inactive means T/C below 125% in these data.

System: CD2F1 mice, L1210 leukemia ip, survival T/C
Test: NCI In Vivo Anticancer Drug Screen. Data for tumor model L1210 Leukemia (intraperitoneal) in CD2F1 (CDF1) mice
Details: higher = longer survival
Outline: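 Compound-dosed mice with transplantable tumor versus matched vehicle controls; endpoint ratio T/C reported.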

[1] = endpoint: mean survival time, dose: 100.0 mg/kg/injection, schedule: Q04DX003 (ip), vehicle: saline with Tween-80
[2] = endpoint: mean survival time, dose: 200.0 mg/kg/injection, schedule: Q04DX003 (ip), vehicle: saline with Tween-80
[3] = endpoint: mean survival time, dose: 400.0 mg/kg/injection, schedule: Q04DX003 (ip), vehicle: saline with Tween-80
[4] = endpoint: mean survival time, dose: 100.0 mg/kg/injection, schedule: Q04DX002 (ip), vehicle: saline with Tween-80
[5] = endpoint: mean survival time, dose: 200.0 mg/kg/injection, schedule: Q04DX002 (ip), vehicle: saline with Tween-80
[6] = endpoint: mean survival time, dose: 50.0 mg/kg/injection, schedule: Q01DX009 (ip), vehicle: saline with Tween-80
[7] = endpoint: mean survival time, dose: 100.0 mg/kg/injection, schedule: Q01DX009 (ip), vehicle: saline with Tween-80
[8] = endpoint: mean survival time, dose: 50.0 mg/kg/injection, schedule: Q01DX009 (ip), vehicle: saline
[9] = endpoint: mean survival time, dose: 100.0 mg/kg/injection, schedule: Q01DX009 (ip), vehicle: saline

Measured: T/C

CC(N)(CC(=O)O)C(=O)O (stereo not given)
inactive: endpoint: mean survival time, dose: 100.0 mg/kg/injection, schedule: Q01DX009 (ip), vehicle: saline sonified 97 % of control | [1] 92 % of control | endpoint: mean survival time, dose: 200.0 mg/kg/injection, schedule: Q01DX009 (ip), vehicle: saline sonified 95 % of control | [2] 97 % of control | endpoint: mean survival time, dose: 400.0 mg/kg/injection, schedule: Q01DX009 (ip), vehicle: saline sonified 96 % of control | [3] 91 % of control

C(=NCc1ccccc1)c1ccc2c(c1)OCO2
inactive: [4] 100 % of control | [5] 100 % of control | endpoint: mean survival time, dose: 400.0 mg/kg/injection, schedule: Q04DX002 (ip), vehicle: saline with Tween-80 100 % of control

CC(C)(C)N1CCOCC1
inactive: [1] 100 % of control

CCOC(=O)CCC(NC(=O)c1ccc(N(Cc2ccccc2)Cc2cnc3nc(N)nc(N)c3n2)cc1)C(=O)OCC (stereo not given)
inactive: endpoint: mean survival time, dose: 100.0 mg/kg/injection, schedule: Q01DX001 (ip), vehicle: Klucel (hydroxypropylcellulose) (HPC) 87 % of control | endpoint: mean survival time, dose: 200.0 mg/kg/injection, schedule: Q01DX001 (ip), vehicle: Klucel (hydroxypropylcellulose) (HPC) 94 % of control | endpoint: mean survival time, dose: 400.0 mg/kg/injection, schedule: Q01DX001 (ip), vehicle: Klucel (hydroxypropylcellulose) (HPC) 97 % of control

CC1(Br)CS(=O)(=O)CC1(C)Br (stereo not given)
inactive: endpoint: mean survival time, dose: 75.0 mg/kg/injection, schedule: Q01DX001 (ip), vehicle: saline with Tween-80 104 % of control | endpoint: mean survival time, dose: 150.0 mg/kg/injection, schedule: Q01DX001 (ip), vehicle: saline with Tween-80 98 % of control | endpoint: mean survival time, dose: 300.0 mg/kg/injection, schedule: Q01DX001 (ip), vehicle: saline with Tween-80 101 % of control

CSc1c(Cl)cc(Cl)cc1C(=O)O
inactive: [1] 94 % of control | [2] 91 % of control | [3] 96 % of control

CCCCCCCCCCCCCCCC(O)S(=O)(=O)O (stereo not given)
inactive: [6] 93 % of control | [7] 94 % of control

CC12CCC3C(CC=C4CC([Se]C(=N)N)CCC43C)C1CCC2=O (stereo not given)
inactive: endpoint: mean survival time, dose: 75.0 mg/kg/injection, schedule: Q01DX001 (ip), vehicle: steriod suspending solution 95 % of control | endpoint: mean survival time, dose: 150.0 mg/kg/injection, schedule: Q01DX001 (ip), vehicle: steriod suspending solution 95 % of control | endpoint: mean survival time, dose: 300.0 mg/kg/injection, schedule: Q01DX001 (ip), vehicle: steriod suspending solution 95 % of control

CS/C(N)=N\C(=O)N(C)C
inactive: [7] 98 % of control | endpoint: mean survival time, dose: 200.0 mg/kg/injection, schedule: Q01DX009 (ip), vehicle: saline with Tween-80 110 % of control | endpoint: mean survival time, dose: 400.0 mg/kg/injection, schedule: Q01DX009 (ip), vehicle: saline with Tween-80 103 % of control

O.O.[Cl][Pt+2][Cl].[NH-]C1CCCCC1[NH-] (stereo not given)
inactive: endpoint: mean survival time, dose: 2.5 mg/kg/injection, schedule: Q04DX003 (ip), vehicle: dextrose 110 % of control | endpoint: mean survival time, dose: 5.0 mg/kg/injection, schedule: Q04DX003 (ip), vehicle: dextrose 113 % of control | endpoint: mean survival time, dose: 80.0 mg/kg/injection, schedule: Q04DX003 (ip), vehicle: dextrose 96 % of control | endpoint: median survival time, dose: 1.25 mg/kg/injection, schedule: Q04DX003 (ip), vehicle: saline 109 % of control | endpoint: median survival time, dose: 2.5 mg/kg/injection, schedule: Q04DX003 (ip), vehicle: saline 110 % of control | endpoint: median survival time, dose: 4.0 mg/kg/injection, schedule: Q04DX003 (ip), vehicle: saline 110 % of control [middle of 5 runs] | endpoint: median survival time, dose: 5.0 mg/kg/injection, schedule: Q04DX003 (ip), vehicle: saline 119 % of control | endpoint: median survival time, dose: 8.0 mg/kg/injection, schedule: Q04DX003 (ip), vehicle: saline 120 % of control | endpoint: median survival time, dose: 64.0 mg/kg/injection, schedule: Q04DX003 (ip), vehicle: saline 98 % of control and 120 % of control and 124 % of control

COc1ccc(NC(=O)Nc2ccccc2F)cc1
inactive: [1] 102 % of control | [2] 101 % of control | [3] 95 % of control

CCCCCCCCCCCCCCCCCC(=O)NCCN(CC)CC
inactive: endpoint: mean survival time, dose: 75.0 mg/kg/injection, schedule: Q01DX001 (ip), vehicle: saline 101 % of control

CCCCCCCCC(=O)c1c(OC)oc(/C=N/Nc2ccccc2)cc1=O
inactive: endpoint: mean survival time, dose: 4.7 mg/kg/injection, schedule: Q01DX009 (ip), vehicle: Klucel (hydroxypropylcellulose) (HPC) 103 % of control | endpoint: mean survival time, dose: 9.38 mg/kg/injection, schedule: Q01DX009 (ip), vehicle: Klucel (hydroxypropylcellulose) (HPC) 103 % of control | endpoint: mean survival time, dose: 18.75 mg/kg/injection, schedule: Q01DX009 (ip), vehicle: Klucel (hydroxypropylcellulose) (HPC) 103 % of control | endpoint: mean survival time, dose: 37.5 mg/kg/injection, schedule: Q01DX009 (ip), vehicle: Klucel (hydroxypropylcellulose) (HPC) 98 % of control | endpoint: mean survival time, dose: 75.0 mg/kg/injection, schedule: Q01DX009 (ip), vehicle: Klucel (hydroxypropylcellulose) (HPC) 92 % of control

CN(C)C(=O)OC1CCCC1[N+](C)(C)CCCCCCCC[N+](C)(C)C1CCCC1OC(=O)N(C)C (stereo not given)
inactive: endpoint: mean survival time, dose: 0.19 mg/kg/injection, schedule: Q01DX009 (ip), vehicle: saline 104 % of control | endpoint: mean survival time, dose: 0.31 mg/kg/injection, schedule: Q04DX003 (ip), vehicle: saline 100 % of control | endpoint: mean survival time, dose: 0.39 mg/kg/injection, schedule: Q01DX009 (ip), vehicle: saline 104 % of control | endpoint: mean survival time, dose: 0.62 mg/kg/injection, schedule: Q04DX003 (ip), vehicle: saline 98 % of control | endpoint: mean survival time, dose: 0.78 mg/kg/injection, schedule: Q01DX009 (ip), vehicle: saline 98 % of control

CC[S+](CC)CC
inactive: [8] 100 % of control | [9] 97 % of control

C[n+]1c(-c2cccc(-c3ccccc3)c2)c2cc(N)ccc2c2ccccc21
inactive: endpoint: mean survival time, dose: 0.78 mg/kg/injection, schedule: Q01DX009 (ip), vehicle: other 92 % of control | endpoint: mean survival time, dose: 1.56 mg/kg/injection, schedule: Q01DX009 (ip), vehicle: other 92 % of control | endpoint: mean survival time, dose: 3.13 mg/kg/injection, schedule: Q01DX009 (ip), vehicle: other 104 % of control | endpoint: mean survival time, dose: 6.25 mg/kg/injection, schedule: Q01DX009 (ip), vehicle: other 108 % of control and 110 % of control

O=c1o[nH]c(-c2ccccc2)c1-c1ccccc1
inactive: endpoint: mean survival time, dose: 50.0 mg/kg/injection, schedule: Q04DX003 (ip), vehicle: saline with Tween-80 95 % of control | [1] 98 % of control | [2] 106 % of control

CCC(CC)(CC)CCS(=O)[O-].[C-]#[O+].[C-]#[O+].[Fe+6].[c-]1[c-][c-][cH-][c-]1
inactive: endpoint: mean survival time, dose: 50.0 mg/kg/injection, schedule: Q04DX002 (ip), vehicle: saline with Tween-80 93 % of control | [4] 93 % of control | [5] 104 % of control

CCN(CC)c1nc(CCc2ccc(N(C)C)cc2)c2[nH]cnc2n1
inactive: endpoint: mean survival time, dose: 3.13 mg/kg/injection, schedule: Q01DX005 (ip), vehicle: other 94 % of control | endpoint: mean survival time, dose: 6.25 mg/kg/injection, schedule: Q01DX005 (ip), vehicle: other 93 % of control | endpoint: mean survival time, dose: 12.5 mg/kg/injection, schedule: Q01DX005 (ip), vehicle: other 93 % of control | endpoint: mean survival time, dose: 25.0 mg/kg/injection, schedule: Q01DX005 (ip), vehicle: other 89 % of control | endpoint: mean survival time, dose: 50.0 mg/kg/injection, schedule: Q01DX005 (ip), vehicle: other 89 % of control

Cc1ncc([N+](=O)[O-])cc1C(=O)O
inactive: [1] 94 % of control | [2] 96 % of control | [3] 93 % of control

CCC1Cc2c([nH]c(=O)n(-c3ccccc3)c2=O)O1 (stereo not given)
inactive: endpoint: mean survival time, dose: 100.0 mg/kg/injection, schedule: Q01DX001 (ip), vehicle: saline 95 % of control | endpoint: mean survival time, dose: 200.0 mg/kg/injection, schedule: Q01DX001 (ip), vehicle: saline 98 % of control | endpoint: mean survival time, dose: 400.0 mg/kg/injection, schedule: Q01DX001 (ip), vehicle: saline 92 % of control

Cc1cc(C)c(C)c(S(=O)(=O)O)c1C
inactive: [6] 102 % of control | [7] 102 % of control | [1] 101 % of control | [2] 89 % of control

O=C(OC1OC(CO)C(O)C(O)C1O)c1ccccc1 (stereo not given)
inactive: [8] 97 % of control | [9] 101 % of control | endpoint: mean survival time, dose: 200.0 mg/kg/injection, schedule: Q01DX009 (ip), vehicle: saline 93 % of control
